The conditions of series [1]: in water; cited from earlier work.
Another series has as its system DIO mice. The experiment in a line: In vivo assay in DIO mice (OGTT, insulin, body weight, NMR body composition). The method, then: Fifty (50) diet induced obese (DIO) C57BL/6J male mice were received from JAX labs at 6 wks of age. The mice were ear notched for identification and housed […] in positively ventilated polycarbonate cages with HEPA filtered air at a density of 5 mice per cage. The animal room was lit entirely with artificial fluorescent lighting, with a controlled 12 h light/dark cycle. The normal temperature and relative humidity ranges in the animal rooms were 22±4° C. and 50±15%, respectively. Filtered tap water, acidified to a pH of 2.8 to 3.1, and high fat diet (Research Diets D12492; 60 kcal %) was provided ad libitum.
Following a 2 week acclimation, 50 mice were randomized into groups (n=10) as below. Group 1. Vehicle treated; Group 2. Low dose EU-A994; Group 3. high dose EU-A594; Group 4. low dose EU-A1024; Group 5. high dose EU-A1024. Mice were dosed via SC on days 1 (0, 7 hrs.), 3, 6, 9, 12, 15, 18, 21, 24. Body weights and cage side observations were recorded daily. Food and water intake was recorded weekly. Mice underwent NMR measurements for determining whole body fat and lean composition on days 1 (pre-dose) and 26. On day 26, mice were fasted overnight for an oral glucose tolerance test. Next day, the first blood sample was collected via tail nick (t=0). Mice were then administered a bolus of 1.0 g/kg glucose. Blood samples were obtained via tail nick at 0, 15, 30, 60, 90 and 120 min after glucose and plasma glucose was immediately determined using a glucometer.
Sacrifice and tissue collection: Mice were sacrificed on day 28. Terminal blood was processed to serum/plasma and aliquots were sent for analysis of glucose, insulin and lipid profile. Body composition was determined by NMR.

The next series has as its target T1, GLP-1 R (Homo sapiens, UniProt P43220).
T1 construct: host or cells: CHO cells
Description: DiscoveRx LeadHunter cellular assay, cAMP stimulation, GLP-1 receptor. In kind it is cell-based. The note with it: human receptor cloned into CHO cells.

A further series addresses T2, glucagon R (Homo sapiens, UniProt P47871).
T2 construct: host or cells: CHO cells
Description: DiscoveRx LeadHunter cellular assay, cAMP stimulation, glucagon receptor. In kind it is cell-based. The note with it: human receptor cloned into CHO cells.

Like-named read-outs stand apart in the source and are kept apart here.

T1 sequence (P43220 24-463): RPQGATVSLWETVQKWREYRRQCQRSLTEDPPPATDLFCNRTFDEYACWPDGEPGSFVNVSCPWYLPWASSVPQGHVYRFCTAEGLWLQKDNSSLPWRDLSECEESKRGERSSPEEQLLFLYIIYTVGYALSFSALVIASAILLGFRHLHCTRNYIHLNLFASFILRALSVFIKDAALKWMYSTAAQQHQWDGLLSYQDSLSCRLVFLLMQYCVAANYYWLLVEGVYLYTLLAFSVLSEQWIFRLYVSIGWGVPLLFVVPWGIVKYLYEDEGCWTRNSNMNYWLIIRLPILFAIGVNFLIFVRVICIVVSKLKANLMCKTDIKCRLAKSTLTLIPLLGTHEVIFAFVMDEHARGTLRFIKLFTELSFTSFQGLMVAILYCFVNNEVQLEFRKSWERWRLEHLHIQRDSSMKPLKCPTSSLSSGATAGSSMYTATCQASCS
T2 sequence (P47871 26-477): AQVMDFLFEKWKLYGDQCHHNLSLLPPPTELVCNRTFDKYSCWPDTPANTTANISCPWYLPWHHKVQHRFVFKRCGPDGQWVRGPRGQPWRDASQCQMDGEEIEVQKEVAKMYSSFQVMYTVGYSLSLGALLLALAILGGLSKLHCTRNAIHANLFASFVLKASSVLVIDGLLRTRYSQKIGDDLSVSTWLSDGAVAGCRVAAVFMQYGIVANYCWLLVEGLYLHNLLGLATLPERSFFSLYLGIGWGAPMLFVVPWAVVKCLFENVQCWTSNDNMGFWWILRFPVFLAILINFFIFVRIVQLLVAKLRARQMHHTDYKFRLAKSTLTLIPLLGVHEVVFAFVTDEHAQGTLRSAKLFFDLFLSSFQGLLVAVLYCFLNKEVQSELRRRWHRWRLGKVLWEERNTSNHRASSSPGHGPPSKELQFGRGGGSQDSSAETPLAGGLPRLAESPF
Description for GLP-1 R: (§1) A further series of cellular assays were carried out using standard cellular assays (DiscoveRx, LeadHunter assays) using readout of cAMP stimulation or arrestin activation. Compounds were weighed precisely in an amount of approximately 1 mg and shipped to DiscoveRx for dilution and assay.
Description for glucagon R: as §1

For `CCCCCCCCCCCCCO[C@@H]1O[C@H](CO)[C@@H](OC2OC(CO)C(O)C(O)C2O)[C@H](O)[C@H]1O` (stereo in doubt) [Tridecyl maltoside], in series [1], the CMC is 0.03 mM.
As for `CCCCCCCCCCO[C@@H]1O[C@H](CO)[C@@H](O[C@H]2O[C@H](CO)[C@@H](O)[C@H](O)[C@H]2O)[C@H](O)[C@H]1O` [Decyl maltoside], the CMC in series [1] is given as 1.8 mM.
As to `CCCCCCCCCCCCO[C@@H]1O[C@H](CO)[C@@H](O[C@H]2O[C@H](CO)[C@@H](O)[C@H](O)[C@H]2O)[C@H](O)[C@H]1O` [Dodecyl-β-D-maltoside], the CMC in series [1] is reported as 0.17 mM.
In the case of `CCCCCCCCCCCCCCO[C@@H]1O[C@H](CO[C@H]2O[C@H](C(=O)NCCCC[C@H](NC(=O)[C@@H](NC(=O)[C@H](Cc3ccccc3)NC(=O)[C@H](CCC(=O)O)NC(=O)[C@@H]3CCCCNC(=O)CC[C@H](NC(=O)[C@H](CC(=O)O)NC(=O)[C@H](CC(C)C)NC(=O)[C@H](Cc4ccc(O)cc4)NC(=O)[C@H](CCCCN)NC(=O)[C@H](CO)NC(=O)[C@H](Cc4ccc(O)cc4)NC(=O)[C@H](CC(=O)O)NC(=O)[C@H](CO)NC(=O)[C@@H](NC(=O)[C@H](Cc4ccccc4)NC(=O)[C@@H](NC(=O)CNC(=O)[C@H](CCC(N)=O)NC(=O)C(C)(C)NC(=O)[C@@H](N)Cc4c[nH]cn4)[C@@H](C)O)[C@@H](C)O)C(=O)N[C@@H](CCC(N)=O)C(=O)N[C@@H](C)C(=O)N[C@@H](C)C(=O)N3)[C@@H](C)CC)C(=O)N[C@@H](Cc3c[nH]c4ccccc34)C(=O)N[C@@H](CC(C)C)C(=O)N[C@@H](CC(C)C)C(=O)N[C@@H](CCC(N)=O)C(=O)N[C@H](C(N)=O)[C@@H](C)O)[C@H](O)[C@H](O)[C@H]2O)[C@@H](O)[C@H](O)[C@H]1O` [EU-A1024, His1-Aib2-Gln3-Gly4-Thr5-Phe6-Thr7-Ser8-Asp9-Tyr10-Ser11-Lys12-Tyr13-Leu14-Asp15-Glu*16-Gln17 Ala18-Ala19-Lys*20-Glu21-Phe22-Ile23-Lys (N-omega (1-tetradecyl beta-D-melibiouronyl)) 24-Trp25-Leu26-Leu27-Gln28-Thr29-NH2], in the series on DIO mice (NMR (FIG. 11)), the fat mass result is reported as “decreased fat mass” and the lean mass entry is “minimal effects on lean mass”. In addition, in the series with DIO mice (SC dosing days 1-24), the basal insulin secretion result was “decreased basal insulin secretion” and the glucose-dependent insulin secretion entry is reported as “potentiated glucose-dependent insulin secretion”. Besides, the weight gain result in the series with DIO mice (SC dosing days 1-24 (FIG. 10)) is listed as “decreased weight gain”. In the series with DIO mice (SC dosing days 1-24, OGTT 1.0 g/kg glucose), the “glucose excursion in the OGTT” value was “decreased glucose excursion”.
Regarding `CCCCCCCCCCCCCCO[C@H]1O[C@H](CO[C@H]2O[C@H](C(=O)NCCCC[C@@H]3NC(=O)[C@@H](NC(=O)[C@H](CC(=O)O)NC(=O)[C@H](CC(C)C)NC(=O)[C@H](Cc4ccc(O)cc4)NC(=O)[C@H](CCCCN)NC(=O)[C@H](CO)NC(=O)[C@H](Cc4ccc(O)cc4)NC(=O)[C@H](CC(=O)O)NC(=O)[C@H](CO)NC(=O)[C@@H](NC(=O)[C@H](Cc4ccccc4)NC(=O)[C@@H](NC(=O)CNC(=O)[C@H](CCC(N)=O)NC(=O)C(C)(C)NC(=O)[C@@H](N)Cc4c[nH]cn4)[C@@H](C)O)[C@@H](C)O)CCC(=O)NCCCC[C@@H](C(=O)N[C@@H](CCC(=O)O)C(=O)N[C@@H](Cc4ccccc4)C(=O)N[C@H](C(=O)N[C@@H](CCC(N)=O)C(=O)N[C@@H](Cc4c[nH]c5ccccc45)C(=O)N[C@@H](CC(C)C)C(=O)N[C@@H](CC(C)C)C(=O)N[C@@H](CCC(N)=O)C(=O)N[C@H](C(N)=O)[C@@H](C)O)[C@@H](C)CC)NC(=O)[C@H](C)NC(=O)[C@H](C)NC3=O)[C@H](O)[C@H](O)[C@H]2O)[C@@H](O)[C@H](O)[C@H]1O` [EU-A1587, His1-Aib2-Gln3-Gly4-Thr5-Phe6-Thr7-Ser8-Asp9-Tyr10-Ser11-Lys12-Tyr13-Leu14-Asp15-Glu*16-Lys (N-omega (1-tetradecyl alpha-D-melibiouronyl)) 17 Ala18-Ala19-Lys*20-Glu21-Phe22-Ile23-Gln24-Trp25-Leu26-Leu27-Gln28-Thr29-NH2], the EC50 (as a rule, the concentration that produces a half-maximal response) on GLP-1 R is 0.081 nM; on glucagon R, 0.253 nM.
The matching figures for `CCCCCCCCCCCCCCCCCCO[C@H]1O[C@H](CO[C@H]2O[C@H](C(=O)NCCCC[C@@H]3NC(=O)[C@@H](NC(=O)[C@H](CC(=O)O)NC(=O)[C@H](CC(C)C)NC(=O)[C@H](Cc4ccc(O)cc4)NC(=O)[C@H](CCCCN)NC(=O)[C@H](CO)NC(=O)[C@H](Cc4ccc(O)cc4)NC(=O)[C@H](CC(=O)O)NC(=O)[C@H](CO)NC(=O)[C@@H](NC(=O)[C@H](Cc4ccccc4)NC(=O)[C@@H](NC(=O)CNC(=O)[C@H](CCC(N)=O)NC(=O)C(C)(C)NC(=O)[C@@H](N)Cc4c[nH]cn4)[C@@H](C)O)[C@@H](C)O)CCC(=O)NCCCC[C@@H](C(=O)N[C@@H](CCC(=O)O)C(=O)N[C@@H](Cc4ccccc4)C(=O)N[C@H](C(=O)N[C@@H](CCC(N)=O)C(=O)N[C@@H](Cc4c[nH]c5ccccc45)C(=O)N[C@@H](CC(C)C)C(=O)N[C@@H](CC(C)C)C(=O)N[C@@H](CCC(N)=O)C(=O)N[C@H](C(N)=O)[C@@H](C)O)[C@@H](C)CC)NC(=O)[C@H](C)NC(=O)[C@H](C)NC3=O)[C@H](O)[C@H](O)[C@H]2O)[C@@H](O)[C@H](O)[C@H]1O` [EU-A1589, His1-Aib2-Gln3-Gly4-Thr5-Phe6-Thr7-Ser8-Asp9-Tyr10-Ser11-Lys12-Tyr13-Leu14-Asp15-Glu*16Lys (N-omega (1-octadecyl alpha-D-melibiouronyl)) 17 Ala18-Ala19-Lys*20-Glu21-Phe22-Ile23-Gln24-Trp25-Leu26-Leu27-Gln28-Thr29-NH2]: 0.236 nM and 0.655 nM.
In the case of `CCCCCCCCCCCCO[C@@H]1O[C@H](CO[C@H]2O[C@H](C(=O)NCCCC[C@H](NC(=O)[C@@H](NC(=O)[C@H](Cc3ccccc3)NC(=O)[C@H](CCC(=O)O)NC(=O)[C@@H]3CCCCNC(=O)CC[C@H](NC(=O)[C@H](CC(=O)O)NC(=O)[C@H](CC(C)C)NC(=O)[C@H](Cc4ccc(O)cc4)NC(=O)[C@H](CCCCN)NC(=O)[C@H](CO)NC(=O)[C@H](Cc4ccc(O)cc4)NC(=O)[C@H](CC(=O)O)NC(=O)[C@H](CO)NC(=O)[C@@H](NC(=O)[C@H](Cc4ccccc4)NC(=O)[C@@H](NC(=O)CNC(=O)[C@H](CCC(N)=O)NC(=O)C(C)(C)NC(=O)[C@@H](N)Cc4c[nH]cn4)[C@@H](C)O)[C@@H](C)O)C(=O)N[C@@H](CCC(N)=O)C(=O)N[C@@H](C)C(=O)N[C@@H](C)C(=O)N3)[C@@H](C)CC)C(=O)N[C@@H](Cc3c[nH]c4ccccc34)C(=O)N[C@@H](CC(C)C)C(=O)N[C@@H](CC(C)C)C(=O)N[C@@H](CCC(N)=O)C(=O)N[C@H](C(=O)NCCOCCOCCOCCOCCC(=O)O)[C@@H](C)O)[C@H](O)[C@H](O)[C@H]2O)[C@@H](O)[C@H](O)[C@H]1O` [EU-A1639], the half-maximal effective concentration (EC50) on GLP-1 R turned out to be 0.385 nM; at glucagon R (read-out: EC50 cAMP glucagon R), 2.29 nM.
The matching figures for `CCCCCCCCCCCCO[C@@H]1O[C@H](CO[C@H]2O[C@H](C(=O)NCCCC[C@H](NC(=O)[C@@H](NC(=O)[C@H](Cc3ccccc3)NC(=O)[C@H](CCC(=O)O)NC(=O)[C@@H]3CCCCNC(=O)CC[C@H](NC(=O)[C@H](CC(=O)O)NC(=O)[C@H](CC(C)C)NC(=O)[C@H](Cc4ccc(O)cc4)NC(=O)[C@H](CCCCN)NC(=O)[C@H](CO)NC(=O)[C@H](Cc4ccc(O)cc4)NC(=O)[C@H](CC(=O)O)NC(=O)[C@H](CO)NC(=O)[C@@H](NC(=O)[C@H](Cc4ccccc4)NC(=O)[C@@H](NC(=O)CNC(=O)[C@H](CCC(N)=O)NC(=O)C(C)(C)NC(=O)[C@@H](N)Cc4c[nH]cn4)[C@@H](C)O)[C@@H](C)O)C(=O)N[C@@H](CCC(N)=O)C(=O)N[C@@H](C)C(=O)N[C@@H](C)C(=O)N3)[C@@H](C)CC)C(=O)N[C@@H](Cc3c[nH]c4ccccc34)C(=O)N[C@@H](CC(C)C)C(=O)N[C@@H](CC(C)C)C(=O)N[C@@H](CCC(N)=O)C(=O)N[C@H](C(=O)NCCOCCOCCOCCOCCOCCOCCOCCOCCC(=O)O)[C@@H](C)O)[C@H](O)[C@H](O)[C@H]2O)[C@@H](O)[C@H](O)[C@H]1O` [EU-A1651]: 0.033 nM and 0.149 nM.
`CCCCCCCCO[C@@H]1O[C@H](CO)[C@@H](O[C@H]2O[C@H](CO)[C@@H](O)[C@H](O)[C@H]2O)[C@H](O)[C@H]1O` [Octyl maltoside]: in series [1], the CMC is recorded as 19.5 mM.
For the compound Sucrose dodecanoate, the CMC in series [1] is listed as 0.3 mM.
